Patent US9879023B2, “Therapeutic compounds” (Gilead Sciences, Inc., priority 2011, dated 2018)

tested on: HIV-IIIb (MT-4 cells); test: Test A: Antiviral Assays in MT4 Cells; format: cell-based; settings: Human immunodeficiency virus 1, IIIB, MT4, 120 h, MT-4 cells infected with HIV-IIIb (0.004 m.o.i.), 5 days incubation, CellTiter-Glo readout; read-out: EC50
Method: Test A: Antiviral Assays in MT4 Cells
For the antiviral assay utilizing MT-4 cells, 0.4 μL of […] test concentration of 3-fold serially diluted compound in DMSO was added to 40 μL of cell growth medium (RPMI 1640, 10% FBS, 1% penicilline/Streptomycine, 1% L-Glutamine, 1% HEPES) in each well of 384-well assay plates (10 concentrations) in quadruplicate.
1 mL aliquots of 2×10e6 MT-4 cells are pre-infected for 1 and 3 hrs respectively, @37° C. with 25 uL (MT4) or of either cell growth medium (mock-infected) or a fresh 1:250 dilution of an HIV-IIIb concentrated ABI stock (0.004 m.o.i. for MT4 cells). Infected and uninfected cells are diluted in cell growth medium and 35 uL of 2000 (for MT4) cells is added to each well of the assay plates.
Assay plates were then incubated in a 37° C. incubator. After 5 days of incubation, 25 μl of 2× concentrated CellTiter-Glo™ Reagent (catalog # G7573, Promega Biosciences, Inc., Madison, Wis.) was added to each well of the assay plate. Cell lysis was carried out by incubating at room temperature for 2-3 min and then chemiluminescence was read using the Envision reader (PerkinElmer). […]

SMILES | EC50
Cc1cc2nc(N(C)CC(=O)N(C)C)sc2c(-c2ccc3c4c(ccnc24)CCO3)c1[C@H](OC(C)(C)C)C(=O)O (atropisomer, axis not shown) [Compound 64, (S)-2-tert-butoxy-2-((R)-7-(2,3-dihydropyrano[4,3,2-de]quinolin-7-yl)-2-((2-(dimethylamino)-2-oxoethyl)(methyl)amino)-5-methylbenzo[d]thiazol-6-yl)acetic acid] | 53000 nM
Cc1cc2c(sc(=O)n2Cc2ccccc2C(F)(F)F)c(-c2ccc3c4c(ccnc24)CCO3)c1[C@H](OC(C)(C)C)C(=O)O (atropisomer, axis not shown) [Compound 71, (S)-2-tert-butoxy-2-((S)-7-(2,3-dihydropyrano[4,3,2-de]quinolin-7-yl)-5-methyl-2-oxo-3-(2-(trifluoromethyl)benzyl)-2,3-dihydrobenzo[d]thiazol-6-yl)acetic acid] | 984 nM
Cc1cc2c(sc(=O)n2Cc2ccc(C(F)(F)F)cc2)c(-c2ccc3c4c(ccnc24)CCO3)c1[C@H](OC(C)(C)C)C(=O)O (atropisomer, axis not shown) [Compound 74, (S)-2-tert-butoxy-2-((S)-7-(2,3-dihydropyrano[4,3,2-de]quinolin-7-yl)-5-methyl-2-oxo-3-(4-(trifluoromethyl)benzyl)-2,3-dihydrobenzo[d]thiazol-6-yl)acetic acid] | 650 nM
CCN(CC)c1nc2cc(C)c([C@H](OC(C)(C)C)C(=O)O)c(-c3ccc4c5c(ccnc35)CCO4)c2s1 (atropisomer, axis not shown) [Compound 45, (S)-2-tert-butoxy-2-((S)-2-(diethylamino)-7-(2,3-dihydropyrano[4,3,2-de]quinolin-7-yl)-5-methylbenzo[d]thiazol-6-yl)acetic acid] | 67 nM
Cc1cc2nc(OC(C)C)sc2c(-c2ccc3c4c(ccnc24)CCO3)c1[C@H](OC(C)(C)C)C(=O)O (atropisomer, axis not shown) [Compound 70, (S)-2-tert-butoxy-2-((S)-7-(2,3-dihydropyrano[4,3,2-de]quinolin-7-yl)-2-isopropoxy-5-methylbenzo[d]thiazol-6-yl)acetic acid] | 80.8 nM
COc1ccc(CNC(=O)c2nc3cc(C)c([C@H](OC(C)(C)C)C(=O)O)c(-c4ccc5c6c(ccnc46)CCO5)c3s2)cc1 (atropisomer, axis not shown) [Compound 99, (S)-2-tert-butoxy-2-((S)-7-(2,3-dihydropyrano[4,3,2-de]quinolin-7-yl)-2-(4-methoxybenzylcarbamoyl)-5-methylbenzo[d]thiazol-6-yl)acetic acid] | 560 nM

same assay, conditions: MT-4 cells infected with HIV-IIIb (0.004 m.o.i.), 5 days incubation, CellTiter-Glo readout; read-out: EC50

SMILES | EC50
Cc1cc2nc(N(C)C(C)C)sc2c(-c2ccc3c4c(ccnc24)CCO3)c1[C@H](OC(C)(C)C)C(=O)O (atropisomer, axis not shown) [Compound 46, (S)-2-tert-butoxy-2-((S)-7-(2,3-dihydropyrano[4,3,2-de]quinolin-7-yl)-2-(isopropyl(methyl)amino)-5-methylbenzo[d]thiazol-6-yl)acetic acid] | 16.8 nM
Cc1cc2nc(N(C)CC(C)C)sc2c(-c2ccc3c4c(ccnc24)CCO3)c1[C@H](OC(C)(C)C)C(=O)O (atropisomer, axis not shown) [Compound 48, (S)-2-tert-butoxy-2-((S)-7-(2,3-dihydropyrano[4,3,2-de]quinolin-7-yl)-2-(isobutyl(methyl)amino)-5-methylbenzo[d]thiazol-6-yl)acetic acid] | 67 nM
Cc1cc2nc(N(C)CCN(C)C)sc2c(-c2ccc3c4c(ccnc24)CCO3)c1[C@H](OC(C)(C)C)C(=O)O (atropisomer, axis not shown) [Compound 61, (S)-2-tert-butoxy-2-((S)-7-(2,3-dihydropyrano[4,3,2-de]quinolin-7-yl)-2-((2-(dimethylamino)ethyl)(methyl)amino)-5-methylbenzo[d]thiazol-6-yl)acetic acid] | 987 nM
